For orientation: pEC50 means the EC50 on a negative log10 scale, so that one unit is a factor of ten. For orientation: melting point means the temperature of the solid-liquid transition.

Data set [1] relates to HL60 cell line. Description: Antiproliferative activity on HL60 cell line (CellTiter-Glo). Format: cell-based. Conditions: Homo sapiens, HL-60; HL60, 72 h of treatment. As for the experimental part: The human leukaemic cell line HL60 was grown in suspension in RPMI 1640 medium containing 10% (v/v) FBS and 1% (v/v) P/S (Life Technologies). […] Leukaemia cells were suspended at a density of 2×10^5 cells/mL in complete RPMI 1640 medium and 25 μL were seeded in each well (5×10^3 final total cells/well). A 10 μM solution of the compounds of examples 1, 12 and 21, and a 25 μM solution of all other compounds were prepared in complete medium, and then serially diluted (1:2) (as specified in Table 3 below). A solution of complete medium with DMSO was used as a vehicle control.
Twenty-five microliters of each serially diluted compound solution were added to the corresponding wells of the plate (50 μL of final volume/well). After 48 h of treatment, 50 μL of fresh 2X serially diluted compound solution was added to their corresponding wells (100 μL of final volume/well). After twenty-four additional hours, an equal volume (100 μL) of CellTiter-Glo Reagent (Promega) was added to each well, plates were shaken during 2 min and incubated at rt for 10 min. Luminescence was recorded using a Spark multimode microplate reader and an integration time of 1 s per well.
In general terms: ATP-based viability assays read luminescence as a measure of living cells.

The target in data set [2] is TET2 (Homo sapiens (Human), UniProt Q6N021). Description: Determination of TET2 activity in cell (5-hmC dot-blot, TET2-transfected HEK293T cells). Conditions: 10 μM compound, HEK293T transfected with pCMV6-TET2, 48 h after transfection; in reference to vehicle, corrected with example 1 condition. The data set is classed as cell-based. The method, then: The HEK293T cell line was grown in Dulbecco's Modified Eagle Medium (DMEM) containing 10% (v/v) fetal bovine serum (FBS) and 1% (v/v) penicillin-streptomycin (P/S).
Twenty-four hours prior transfection, 3×10^6 HEK293T cells were seeded in p100 dishes previously coated with 0.001% of poly (1-lysine). One hour before transfection, a 10 μM solution of each compound was prepared in complete medium and 9 mL was added by medium replacement in one p100 dish (by duplicate). A solution of complete medium with DMSO was used as a vehicle control. Then, a transfection mix was prepared diluting 8 μg of pCMV6-TET2 expression vector (ID: RC226438, Origene) with 32 μg of polyethylenimine (PEI 25000, Polysciences, Inc.) in a 150 mM NaCl solution per p100 plate. After 15 min of incubation at rt, 1 mL of the transfection mix was added to each p100 plate. Next day, medium was replaced with a fresh diluted compound solution (10 mL/p100 dish). Forty-eight hours after transfection, cells were trypsinized and pelleted. Each pellet was suspended in 500 μL of DNA lysis buffer (50 mM Tris-HCl pH 8, 10 mM EDTA pH 8, 0.1% Triton X-100, 0.5% Tween-20, 400 μg/mL Proteinase K, 50 μg/mL RNAse), and incubated overnight at 56° C. in a thermal mixer. Next day, genomic DNA (gDNA) was extracted from each sample following a standard phenol-chloroform extraction method.
For each sample, 2 μg of gDNA was diluted in 50 μL of H2O. Then, 50 μL of 2X Denature solution (0.8 M NaOH, 20 mM EDTA) was added to each sample and incubated at 95° C. for 10 min. Samples were immediately placed on ice to cool and mixed with 100 μL of cold 2X Neutralize buffer (2 M ammonium acetate pH 7). Then, samples were incubated on ice for 10 min. DNA two-fold serial dilutions were prepared by mixing 100 μL of each sample with 100 μL of H2O in the next well, and so on. A total of 7 serial dilutions were set up. One hundred microliters of each sample and their respective dilutions were spotted on a positively charged nylon membrane (Amersham Hybond-N+, GE healthcare) in an assembled Bio-Dot apparatus (Bio-Rad). Samples were washed adding 400 μL of 0.4 M NaOH in each well. Then, blotted membrane was removed from the Bio-Dot apparatus and washed with 2×SSC buffer (0.3 M NaCl, 30 mM sodium citrate) for 5 min, air dried for 15 min, and UV-crosslinked (energy 120,000 μJ/cm^2) for 1 min. Afterwards, the blotted membrane was blocked with Blocking solution (5% non-fat milk, 0.1% Tween-20 in PBS1X) for 1 h at rt. Then, the membrane was incubated with the 5-hmC (5-hydroxymethylcytosine) primary antibody (#39769, Active Motif) diluted 1/10,000 in Blocking solution for 1 h at rt. Next, membrane was washed three times for 5 min in PBS1X and incubated with the anti-rabbit-HRP secondary antibody diluted 1/5,000 in blocking solution for 1 h at rt. Finally, the membrane was washed three times for 5 min in PBS1X, developed with SuperSignal West Pico Chemiluminescent Substrate (ThermoFisher Scientific), and exposed to autoradiography films (Fujifilm).
Each dot-blot membrane allows the evaluation of up to 6 different conditions (in duplicate) at the same time. Among these 6 different conditions there is always the condition of the vehicle and our compound of example 1, so in the end we evaluated 4 new compounds per membrane. The density intensity of each dot was quantified using the Image J software. […] Fold-change was calculated in reference to the vehicle condition and corrected with the example 1 condition for each dot-blot membrane.

pEC50: −log10 of the molar value.

The molecule `Cc1[nH]c2ccccc2c1-c1csc(NC(=O)Cc2cc(Br)cs2)n1` [Example 19, 2-(4-bromothiophen-2-yl)-N-[4-(2-methyl-1H-indol-3-yl)thiazol-2-yl]acetamide] registered a melting point of 212 to 214 °C. This molecule also showed a pEC50 in data set [1] of 6.09. The “Fold change (amount of 5-hmC)” value in data set [2] is on record as 8.4.
For `Cc1[nH]c2ccccc2c1-c1csc(NC(=O)Cc2c[nH]c3ccc(O)cc23)n1` [Example 21, 2-(5-hydroxy-1H-indol-3-yl)-N-[4-(2-methyl-1H-indol-3-yl)thiazol-2-yl]acetamide], in that order: 145 to 149 °C, 7.20 and 15.3.
For `Cc1[nH]c2ccccc2c1-c1csc(NC(=O)Cc2c[nH]c3ccc(F)cc23)n1` [Example 12, 2-(5-fluoro-1H-indol-3-yl)-N-[4-(2-methyl-1H-indol-3-yl)thiazol-2-yl]acetamide], in that order: 230 to 232 °C, 6.30 and 16.0.
`Cc1[nH]c2ccccc2c1-c1nc(NC(=O)Cc2cn3ccsc3n2)sc1C` [Example 4, 2-(imidazo[2,1-b]thiazol-6-yl)-N-[5-methyl-4-(2-methyl-1H-indol-3-yl)thiazol-2-yl]acetamide] registered a melting point of 169 to 172 °C. This molecule gave a pEC50 in data set [1] of 5.64. In addition, the “Fold change (amount of 5-hmC)” value in data set [2] came out at 9.2.
For `Cc1[nH]c2ccccc2c1-c1csc(NC(=O)Cc2c[nH]c3ccccc23)n1` [Example 13, 2-(1H-indol-3-yl)-N-[4-(2-methyl-1H-indol-3-yl)thiazol-2-yl]acetamide] the same measures were 246 to 248 °C, 5.85 and 11.6.
